Laboratory results from the NIST ThermoML archive (doi:10.1016/j.jct.2016.10.023).

Test: xn = mol fraction of the nth substance listed
Conditions: Liquid, Constant-volume piezometry

CCCCC [pentane] + CCCO
Conditions	mass density [kg/m3]
305.05 K, x1 = 0.8	631.08
312.65 K, x1 = 0.8	623.57
317.85 K, x1 = 0.5	663.63
324.25 K, x1 = 0.8	611.04
334.25 K, x1 = 0.8	601.01
351.05 K, x1 = 0.5	631.49
353.55 K, x1 = 0.8	575.9
368.45 K, x1 = 0.5	611.87
372.15 K, x1 = 0.8	553.38
381.85 K, x1 = 0.2	663.76
383.55 K, x1 = 0.5	592.03

Conditions	mass density [kg/m3]
308.15 K, 2402 kPa, x1 = 0.8	630.94
313.15 K, 157 kPa, x1 = 0.8	623.55
313.15 K, 6022 kPa, x1 = 0.8	630.7
314.15 K, 765 kPa, x1 = 0.8	623.51
318.15 K, 3615 kPa, x1 = 0.8	623.33
323.15 K, 3447 kPa, x1 = 0.5	663.38
323.15 K, 7107 kPa, x1 = 0.8	623.1
323.15 K, 13373 kPa, x1 = 0.8	630.24
325.15 K, 801 kPa, x1 = 0.8	611.01
333.15 K, 5935 kPa, x1 = 0.8	610.66
333.15 K, 9686 kPa, x1 = 0.5	662.92
333.15 K, 14195 kPa, x1 = 0.8	622.65
333.15 K, 20785 kPa, x1 = 0.8	629.77
335.15 K, 769 kPa, x1 = 0.8	600.98
338.15 K, 2550 kPa, x1 = 0.8	600.85
343.15 K, 5592 kPa, x1 = 0.8	600.65
343.15 K, 12414 kPa, x1 = 0.8	610.23
343.15 K, 16000 kPa, x1 = 0.5	662.46
343.15 K, 21183 kPa, x1 = 0.8	622.2
343.15 K, 28234 kPa, x1 = 0.8	629.31
351.15 K, 441 kPa, x1 = 0.5	631.49
353.15 K, 1647 kPa, x1 = 0.5	631.4
353.15 K, 11601 kPa, x1 = 0.8	600.23
353.15 K, 18747 kPa, x1 = 0.8	609.8
353.15 K, 22340 kPa, x1 = 0.5	661.99
353.15 K, 28151 kPa, x1 = 0.8	621.75
353.15 K, 35636 kPa, x1 = 0.8	628.84
355.15 K, 1219 kPa, x1 = 0.8	575.84
358.15 K, 2713 kPa, x1 = 0.8	575.73
363.15 K, 5237 kPa, x1 = 0.8	575.54
363.15 K, 7726 kPa, x1 = 0.5	630.97
363.15 K, 17738 kPa, x1 = 0.8	599.81
363.15 K, 25314 kPa, x1 = 0.8	609.37
363.15 K, 28606 kPa, x1 = 0.5	661.53
363.15 K, 35183 kPa, x1 = 0.8	621.29
363.15 K, 42979 kPa, x1 = 0.8	628.38
372.65 K, 854 kPa, x1 = 0.8	553.36
373.15 K, 1058 kPa, x1 = 0.8	553.35
373.15 K, 3137 kPa, x1 = 0.5	611.68
373.15 K, 10414 kPa, x1 = 0.8	575.16
373.15 K, 13490 kPa, x1 = 0.5	630.54
373.15 K, 23787 kPa, x1 = 0.8	599.4
373.15 K, 31687 kPa, x1 = 0.8	608.94
373.15 K, 34882 kPa, x1 = 0.5	661.07
373.15 K, 42247 kPa, x1 = 0.8	620.84
378.15 K, 5874 kPa, x1 = 0.5	611.47
383.15 K, 1487 kPa, x1 = 0.2	663.69
383.15 K, 4567 kPa, x1 = 0.5	602.79
383.15 K, 5590 kPa, x1 = 0.8	552.99
383.15 K, 8687 kPa, x1 = 0.5	611.26
383.15 K, 15678 kPa, x1 = 0.8	574.78
383.15 K, 19194 kPa, x1 = 0.5	630.11
383.15 K, 29885 kPa, x1 = 0.8	598.99
383.15 K, 38107 kPa, x1 = 0.8	608.51
384.15 K, 1047 kPa, x1 = 0.5	592.01
393.15 K, 941 kPa, x1 = 0.5	579.06
393.15 K, 5707 kPa, x1 = 0.5	591.66
393.15 K, 8491 kPa, x1 = 0.2	663.21
393.15 K, 10012 kPa, x1 = 0.5	602.39
393.15 K, 10151 kPa, x1 = 0.8	552.64
393.15 K, 14096 kPa, x1 = 0.5	610.86
393.15 K, 20747 kPa, x1 = 0.8	574.4
